Reference: ChEMBL document CHEMBL5380816, “Inclusion of Nitrofurantoin into the Realm of Cancer Chemotherapy via Biology-Oriented Synthesis and Drug Repurposing” (J Med Chem, 2023)
Active and inactive are the calls of the source. No cut-off for these calls is given here.

Experiments:
[1] = system: HeLa; assay: Induction of apoptosis in human HeLa cells assessed as viable cells incubated at 0.097 uM for 72 hrs by annexin V-FITC based propidium iodide dual staining assay (reference value: 97.23%); assay type: functional; conditions: read-out: Activity
[2] = system: Caco-2; assay: Anticancer activity against human Caco-2 cells assessed as round cells incubated at 0.097uM for 72 hrs by phase contrast inverted microscopic analysis; assay type: functional, cell-based
[3] = system: Caco-2; assay: Anticancer activity against human Caco-2 cells assessed as cell shrinkage incubated at 0.097uM for 72 hrs by phase contrast inverted microscopic analysis; assay type: functional, cell-based
[4] = system: Caco-2; assay: Anticancer activity against human Caco-2 cells assessed as smaller cells incubated at 0.097uM for 72 hrs by phase contrast inverted microscopic analysis; assay type: functional, cell-based
[5] = system: Caco-2; assay: Induction of apoptosis in human Caco-2 cells assessed as necrotic cells incubated at 0.097 uM for 72 hrs by annexin V-FITC based propidium iodide dual staining assay (reference value: 0.02%); assay type: functional
[6] = system: HeLa; assay: Induction of apoptosis in human HeLa cells assessed as early apoptotic cells by measuring bright green patch incubated at 0.097 uM for 72 hrs by acridine orange-ethidium bromide dual staining based fluorescence microscopic analysis; assay type: functional, cell-based
[7] = system: HeLa; assay: Anticancer activity against human HeLa cells assessed as absence of normal spindle shape incubated at 0.097uM for 72 hrs by phase contrast inverted microscopic analysis; assay type: functional, cell-based
[8] = system: MCF7; assay: Anticancer activity against human MCF7 cells assessed as smaller cells incubated at 0.097uM for 72 hrs by phase contrast inverted microscopic analysis; assay type: functional, cell-based
[9] = system: MCF7; assay: Induction of apoptosis in human MCF7 cells assessed as early apoptotic cells incubated at 0.097 uM for 72 hrs by annexin V-FITC based propidium iodide dual staining assay (reference value: 0.06%); assay type: functional
[10] = system: HeLa; assay: Induction of apoptosis in human HeLa cells assessed as necrotic cells incubated at 0.097 uM for 72 hrs by annexin V-FITC based propidium iodide dual staining assay (reference value: 0%); assay type: functional
[11] = system: MCF7; assay: Induction of oxidative stress in human MCF7 cells assessed as cell death by measuring redox alteration fluorescence incubated at 0.11 uM for 72 hrs in presence of dihydro dichlorofluorescein diacetate by DCFH-DA based flow cytometric analysis relative to control; assay type: functional
[12] = system: HeLa; assay: Induction of apoptosis in human HeLa cells assessed as early apoptotic cells by measuring bright green patch incubated at 0.11 uM for 72 hrs by acridine orange-ethidium bromide dual staining based fluorescence microscopic analysis; assay type: functional, cell-based
[13] = system: HeLa; assay: Induction of apoptosis in human HeLa cells assessed as viable cells incubated at 0.11 uM for 72 hrs by annexin V-FITC based propidium iodide dual staining assay (reference value: 97.23%); assay type: functional; conditions: read-out: Activity
[14] = system: MCF7; assay: Anticancer activity against human MCF7 cells incubated for 24 hrs by MTT assay; assay type: functional, cell-based; conditions: MCF7, 24 h
[15] = system: Calf thymus DNA; assay: Induction of calf thymus DNA damage assessed as disrupted by DNA by measuring decrease in fluorescence intensity at 200 uM by EvaGreen based fluorescence plate reader analysis; assay type: nucleic-acid assay; conditions: Bos taurus
[16] = system: HepG2; assay: Anticancer activity against human HepG2 cells incubated for 24 hrs by MTT assay; assay type: functional, cell-based; conditions: HepG2, 24 h
[17] = system: HepG2; assay: Induction of apoptosis in human HepG2 cells assessed as caspase3/7 activation at 0.11 uM using caspase-glo 3/7 as substrate relative to control; assay type: functional
[18] = system: UMUC3; assay: Anti-clonogenicic activity in human UC3 cells assessed as reduction of colony formation at 5 uM for 24 hrs by crystal violet based staining relative to control; assay type: functional; parameters: scale not given: the % may be the effect or the level left
[19] = system: dsDNA; assay: Induction of damage in dsDNA (unknown origin) assessed as DNA disruption by measuring amplitude at 100 uM incubated for 2.5 hrs by EvaGreen based fluorescence plate reader analysis; assay type: nucleic-acid assay
[20] = system: HepG2; assay: Induction of oxidative stress in human HepG2 cells assessed as cell death by measuring redox alteration fluorescence incubated at 0.027 uM for 72 hrs in presence of dihydro dichlorofluorescein diacetate by DCFH-DA based flow cytometric analysis relative to control; assay type: functional
[21] = system: MCF7; assay: Induction of apoptosis in human MCF7 cells assessed as late apoptotic cells incubated at 0.017 uM for 72 hrs by annexin V-FITC based propidium iodide dual staining assay (reference value: 0.01%); assay type: functional
[22] = system: HepG2; assay: Induction of apoptosis in human HepG2 cells assessed as viable cells by measuring green uniform patch incubated at 0.017 uM for 72 hrs by acridine orange-ethidium bromide dual staining based fluorescence microscopic analysis; assay type: functional, cell-based
[23] = system: MCF7; assay: Induction of apoptosis in human MCF7 cells assessed as total apoptotic cells incubated at 0.017 uM for 72 hrs by annexin V-FITC based propidium iodide dual staining assay (reference value: 0.04 %); assay type: functional
[24] = system: Caco-2; assay: Induction of oxidative stress in human Caco-2 cells assessed as cell death by measuring redox alteration fluorescence incubated at 0.097 uM for 72 hrs in presence of dihydro dichlorofluorescein diacetate by DCFH-DA based flow cytometric analysis relative to control; assay type: functional
[25] = system: HepG2; assay: Induction of apoptosis in human HepG2 cells assessed as total apoptotic cells incubated at 0.017 uM for 72 hrs by annexin V-FITC based propidium iodide dual staining assay (reference value: 0.99 +/- 0.02%); assay type: functional
[26] = system: MCF7; assay: Anticancer activity against human MCF7 cells assessed as round cells incubated at 0.098uM for 72 hrs by phase contrast inverted microscopic analysis; assay type: functional, cell-based
[27] = system: HepG2; assay: Induction of apoptosis in human HepG2 cells assessed as late apoptotic cells incubated at 0.098 uM for 72 hrs by annexin V-FITC based propidium iodide dual staining assay (reference value: 0.66%); assay type: functional
[28] = system: HeLa; assay: Anticancer activity against human HeLa cells assessed as absence of normal spindle shape incubated at 0.098uM for 72 hrs by phase contrast inverted microscopic analysis; assay type: functional, cell-based
[29] = system: HepG2; assay: Induction of apoptosis in human HepG2 cells assessed as viable cells incubated at 0.098 uM for 72 hrs by annexin V-FITC based propidium iodide dual staining assay (reference value: 97.27%); assay type: functional; conditions: read-out: Activity
[30] = system: HeLa; assay: Anticancer activity against human HeLa cells assessed as cell shrinkage incubated at 0.098uM for 72 hrs by phase contrast inverted microscopic analysis; assay type: functional, cell-based
[31] = system: HepG2; assay: Induction of apoptosis in human HepG2 cells assessed as total apoptotic cells incubated at 0.098 uM for 72 hrs by annexin V-FITC based propidium iodide dual staining assay (reference value: 0.99 +/- 0.02%); assay type: functional
[32] = system: HeLa; assay: Induction of apoptosis in human HeLa cells assessed as total apoptotic cells incubated at 0.098 uM for 72 hrs by annexin V-FITC based propidium iodide dual staining assay (reference value: 0 +/- 0.035%); assay type: functional
[33] = system: Caco-2; assay: Anticancer activity against human Caco-2 cells assessed as absence of normal spindle shape incubated at 0.098uM for 72 hrs by phase contrast inverted microscopic analysis; assay type: functional, cell-based
[34] = system: Caco-2; assay: Induction of apoptosis in human Caco-2 cells assessed as viable cells incubated at 0.098 uM for 72 hrs by annexin V-FITC based propidium iodide dual staining assay (reference value: 99.89%); assay type: functional; conditions: read-out: Activity
[35] = system: HeLa; assay: Induction of oxidative stress in human HeLa cells assessed as cell death by measuring redox alteration fluorescence incubated at 0.11 uM for 72 hrs in presence of dihydro dichlorofluorescein diacetate by DCFH-DA based flow cytometric analysis relative to control; assay type: functional

NS(=O)(=O)c1ccc(-n2cc(CN3C(=O)CN(/N=C/c4ccc([N+](=O)[O-])o4)C3=O)nn2)cc1
viability at 0.097 µM [1]: 43.3% | Activity [2]: Active | Activity [3]: Active | Activity [4]: Active | Activity [5]: 13.8% | Activity [6]: Active | Activity [7]: Active | Activity [8]: Active | Activity [9]: 4.85% | Activity [10]: 4.26% | Activity [11]: 51.08%

C#CCN1C(=O)CN(/N=C/c2ccc([N+](=O)[O-])o2)C1=O
Activity [12]: Active | viability at 0.11 µM [13]: 66.4% | IC50 [14]: 120 µM | Activity [15]: Active | IC50 [16]: 117 µM | Activity [17]: 63% | Activity [18]: 75% | Activity [19]: 177 | Activity [20]: 54.19%

O=c1[nH]cc(F)c(=O)[nH]1 [FLUOROURACIL]
Activity [21]: 2.26% | Activity [22]: Active | Activity [23]: 2.94% | Activity [24]: 4.78% | Activity [25]: 3.9%

O=C(CN1C(=O)CN(/N=C/c2ccc([N+](=O)[O-])o2)C1=O)c1ccc(Cl)cc1
Activity [26]: Active | Activity [27]: 34.89% | Activity [28]: Active | viability at 0.098 µM [29]: 55% | Activity [30]: Active | Activity [31]: 38.74% | Activity [32]: 64.08% | Activity [33]: Active | viability at 0.098 µM [34]: 60.6% | Activity [35]: 32.41%
